Test results published in patent publication US6984400B2, “Method of treating restenosis using bisphosphonate nanoparticles” (Yissum Research Development Company of the Hebrew …, priority 1998, dated 2006).

Experiments:
RAW 264 cells = experiment: Growth/proliferation of RAW 264 cells in vitro; assay type: cell-based, murine; details: FIG. 6; 48 hours after treatment; proliferation in buffer = 100%
Protocol: The effect of ISA on the growth of RAW 264 cells was determined. RAW 264 cells, which are derived from the murine macrophage cell lines, were plated at 2×10^4 cells per well in 24-well plates and allowed to grow for approximately 24 hours in DMEM. The cells were then treated with various compositions of the ISA drug, specifically, free ISA, the ISA−Ca^+2 salt, and ISA encapsulated in a nanoparticle (“ISA NP”). As discussed supra, the ISA NP contains Ca^+2 to lower the solubility of the bisphosphonate and increase its entrapment efficiency. For comparison purposes, the RAW 264 cells were also treated with blank NP, i.e., nanoparticles with no drug embedded therein. The cells were then analyzed 48 hours after treatment. Analysis included cell counting by Coulter counter and cell viability by tryphan blue exclusion assay.
The effect of ISA compositions on the growth of RAW 264 cells in vitro is illustrated in FIG. 6. The cell proliferation in buffer only was termed as 100%. The data represented is the mean with a ±SD (6≦N≦27).
The following formulations were evaluated: Ca^+2-ISA salt, Ca^+2-ISA salt+PVA, and Ca^+2-ISA adsorbed on the surface of a blank NP. The cell proliferation in the buffer only was termed as 100%. N.B., a lower column represents higher potency.

[1] = system: neointimal formation in balloon-injured rat carotid artery; experiment: Rat carotid catheter (balloon) injury model of restenosis; assay type: in vivo; details: Example 2; 1.5 and 15 mg/kg day -1 and/or day +6; 14 days post injury; FIG. 4
Protocol: Animals were obtained and housed in the animal facilities of the Faculty of Medicine, The Hebrew University of Jerusalem, conforming to the standards for care and use of laboratory animals of the Hebrew University of Jerusalem. Male rats of Sabra strain weighing 350-420 g were used. The animals were fed standard laboratory chow and tap water ad libitum. All in vivo experiments were conducted under general anaesthesia achieved with 80 mg/kg ketamine and 5 mg/kg xylazine administered IP.
The distal left common and external carotid arteries were exposed through a midline incision in the neck. […]
The slides were examined microscopically by an investigator blinded to the type of the experimental group. Six to eight sections in each slide were evaluated by computerized morphometric analysis and the averaged section data were further used as a representative of a whole slide for comparisons between groups. The residual lumen, the area bounded by the internal elastic lamina (original lumen), and the area circumscribed by the external elastic lamina (“total arterial area”) were measured directly. The degree of neointimal thickening was expressed as the ratio between the area of the neointimal and the original lumen (% stenosis), and as the ratio between the neointimal area to the area of the media (N/M). […]

| SMILES | growth of RAW 264 cells (RAW 264 cells) | mean neointimal formation [1] |
| --- | --- | --- |
| Nc1nccc[n+]1CC(P(=O)([O-])O)P(=O)(O)O (centres unmarked) [free ISA, 2-(2-aminopyrimidinio) ethylidene-1,1-bisphosphonic acid betaine] | only a minor effect |  |
| O=P(O)(O)C(Cl)(Cl)P(=O)(O)O [free clodronate in solution, (dichloromethylene) diphosphonic acid] |  | marked neointimal formation |
